How the values were obtained:
[1] = trans:cis ratio of the proline peptide bond in N-acetyl proline methylester derivatives; type: physicochemical; conditions: for ΔΔG: relative to AcProOMe
Protocol: To begin to test this hypothesis, it was determined how electron-withdrawing groups affect the trans:cis ratio. N-Acetyl proline methylester (AcProOMe), N-acetyl-4(R)-hydroxyproline methylester (AcHypOMe), and N-acetyl-4(R)-fluoroproline (AcFlpOMe) were synthesized and their preferences for the trans state were determined, Eberhardt et al., J. Am. Chem. Soc., 118:12261-12266 (1996).

[2] = crystalline structure, Cγ-Cδ bond length; type: physicochemical
Text: The origin of this effect on trans:cis ratio was explored by determining the crystalline structures of AcProOMe, AcHypOMe, and AcFlpOMe, Panasik et al., Int. J. Pept. Protein Res., 44:262-269. […] This order is consistent with an inductive effect in which the substituent in the 4-position withdraws electron density away from the Cγ-Cδ bond. A shorter Cγ-Cδ bond length diminishes steric clashes between atoms in the trans isomer, but has no effect on the cis isomer. The inductive effect from the hydroxyl group of Hyp residues is consistent with the effect of Hyp on collagen stability. Other manifestations of the inductive effects of Hyp and Flp residues were also found by Panasik et al. and by Eberhardt et al. Similar inductive effects should be manifested in 4(S)-fluoroproline and in 4,4-difluoroproline.

Compound: COC(=O)[C@@H]1CCCN1C(C)=O [AcProOMe, N-Acetyl proline methylester]
- trans:cis ratio [1]: 4.3
- ΔΔG [1]: 0 kcal/mol
- Cy-Cδ bond length [2]: 1.523 Å

Compound: COC(=O)[C@@H]1C[C@@H](O)CN1C(C)=O [AcHypOMe, N-acetyl-4(R)-hydroxyproline methylester]
- trans:cis ratio [1]: 5.8
- ΔΔG [1]: 0.18 kcal/mol
- Cy-Cδ bond length [2]: 1.510 Å

— patent US5973112A, “Collagen mimics” (Wisconsin Alumni Research Foundation, priority 1997, dated 1999)
